Measurements: PMC10486429, “Investigations Using Albumin Binders to Modify the Tissue Distribution Profile of Radiopharmaceuticals Exemplified with Folate Radioconjugates” (Cancers, 2023)

Tested on: KB tumor-bearing athymic nude mice
Assay: Biodistribution of 177Lu-RedFols in KB tumor-bearing mice
Type: in vivo, mouse
Experimental: Athymic nude mice (Crl:CD1-Foxn^nu) were kept on a folate-deficient rodent diet (ssniff Spezialdiäten GmbH, Soest, Germany) for at least one week prior to inoculation with the tumor cells. Biodistribution studies were performed approx. two weeks after subcutaneous inoculation with KB tumor cells (5 × 10^6 in 100 μL PBS) (Supplementary Materials Section S12). […] Data were presented as the average ± SD of n = 3−4 mice.
Purpose: Biodistribution studies were performed in KB tumor-bearing athymic nude mice (Crl:CD1-Foxnnu) in order to investigate the tissue distribution profiles of the novel radioconjugates. The aim was to compare the impact of the two different albumin binders (4-(p-iodophenyl)butanoate unit vs. 5-(p-iodophenyl)pentanoate unit), and that of the in-corporation of an AMBA linker adjacent to the albumin binder on the distribution profile of the resulting folate radioconjugates.
Methods: The methods are described in the main article. The mice were sacrificed at […]

## CN1c2c(nc(N)[nH]c2=O)NC[C@H]1CNc1ccc(C(=O)N[C@@H](CCC(=O)N[C@@H](CCCCNC(=O)CN2CCN(CC(=O)O)CCN(CC(=O)O)CCN(CC(=O)O)CC2)C(=O)N[C@@H](CCCCNC(=O)c2ccc(CNC(=O)CCCc3ccc(I)cc3)cc2)C(=O)O)C(=O)O)cc1 [[^177Lu]Lu-6R-RedFol-3, metal not drawn]
  Tumor-to-kidney ratio, comparison among all folate radioconjugates: highest tumor-to-kidney ratio
1 h p.i.
  Blood, accumulated activity: 26 ± 3 % IA/g
  Bone, accumulated activity: 1.8 ± 0.5 % IA/g
  Intestines, accumulated activity: 2.6 ± 0.8 % IA/g
  KB tumor, accumulated activity: 8.5 ± 1.9 % IA/g
  Kidneys, accumulated activity: 8.0 ± 1.3 % IA/g
  Liver, accumulated activity: 3.7 ± 0.4 % IA/g
  Lung, accumulated activity: 11 ± 1 % IA/g
  Muscle, accumulated activity: 1.0 ± 0.1 % IA/g
  Salivary glands, accumulated activity: 5.2 ± 1.5 % IA/g
  Spleen, accumulated activity: 2.9 ± 0.4 % IA/g
  Stomach, accumulated activity: 1.9 ± 0.5 % IA/g
  Tumor-to-blood ratio: 0.33 ± 0.03
  Tumor-to-kidney ratio: 1.1 ± 0.1
  Tumor-to-liver ratio: 2.3 ± 0.4
4 h p.i.
  Blood, accumulated activity: 17 ± 1 % IA/g
  Bone, accumulated activity: 1.8 ± 0.1 % IA/g
  Intestines, accumulated activity: 2.0 ± 0.2 % IA/g
  KB tumor, accumulated activity: 18 ± 2 % IA/g
  Kidneys, accumulated activity: 7.6 ± 0.4 % IA/g
  Liver, accumulated activity: 3.0 ± 0.1 % IA/g
  Lung, accumulated activity: 8.2 ± 0.6 % IA/g
  Muscle, accumulated activity: 1.3 ± 0.1 % IA/g
  Salivary glands, accumulated activity: 4.2 ± 0.1 % IA/g
  Spleen, accumulated activity: 2.2 ± 0.2 % IA/g
  Stomach, accumulated activity: 1.5 ± 0.1 % IA/g
  Tumor-to-blood ratio: 1.1 ± 0.1
  Tumor-to-kidney ratio: 2.4 ± 0.2
  Tumor-to-liver ratio: 6.0 ± 0.8
24 h p.i.
  Blood, accumulated activity: 7.9 ± 0.7 % IA/g
  Bone, accumulated activity: 1.1 ± 0.1 % IA/g
  Intestines, accumulated activity: 0.96 ± 0.15 % IA/g
  KB tumor, accumulated activity: 39 ± 4 % IA/g
  Kidneys, accumulated activity: 12 ± 2 % IA/g
  Liver, accumulated activity: 1.9 ± 0.3 % IA/g
  Lung, accumulated activity: 4.1 ± 0.1 % IA/g
  Muscle, accumulated activity: 1.0 ± 0.1 % IA/g
  Salivary glands, accumulated activity: 4.0 ± 1.1 % IA/g
  Spleen, accumulated activity: 2.2 ± 0.1 % IA/g
  Stomach, accumulated activity: 1.1 ± 0.1 % IA/g
  Tumor-to-blood ratio: 5.0 ± 0.4
  Tumor-to-kidney ratio: 3.3 ± 0.4
  Tumor-to-liver ratio: 21 ± 1

## CN1c2c(nc(N)[nH]c2=O)NC[C@H]1CNc1ccc(C(=O)N[C@@H](CCC(=O)N[C@@H](CCCCNC(=O)CN2CCN(CC(=O)O)CCN(CC(=O)O)CCN(CC(=O)O)CC2)C(=O)N[C@@H](CCCCNC(=O)CCCCc2ccc(I)cc2)C(=O)O)C(=O)O)cc1 [[^177Lu]Lu-6R-RedFol-24, metal not drawn]
1 h p.i.
  Blood, accumulated activity: 9.0 ± 1.2 % IA/g
  Bone, accumulated activity: 1.2 ± 0.1 % IA/g
  Intestines, accumulated activity: 1.2 ± 0.3 % IA/g
  KB tumor, accumulated activity: 17 ± 2 % IA/g
  Kidneys, accumulated activity: 36 ± 4 % IA/g
  Liver, accumulated activity: 2.6 ± 0.7 % IA/g
  Lung, accumulated activity: 4.6 ± 0.3 % IA/g
  Muscle, accumulated activity: 1.4 ± 0.1 % IA/g
  Salivary glands, accumulated activity: 6.4 ± 0.1 % IA/g
  Spleen, accumulated activity: 1.3 ± 0.2 % IA/g
  Stomach, accumulated activity: 1.5 ± 0.1 % IA/g
  Tumor-to-blood ratio: 2.0 ± 0.4
  Tumor-to-kidney ratio: 0.48 ± 0.02
  Tumor-to-liver ratio: 6.9 ± 1.6
4 h p.i.
  Blood, accumulated activity: 3.2 ± 1.8 % IA/g
  Bone, accumulated activity: 0.87 ± 0.21 % IA/g
  Intestines, accumulated activity: 0.83 ± 0.37 % IA/g
  KB tumor, accumulated activity: 34 ± 6 % IA/g
  Kidneys, accumulated activity: 57 ± 5 % IA/g
  Liver, accumulated activity: 1.9 ± 0.4 % IA/g
  Lung, accumulated activity: 2.4 ± 1.1 % IA/g
  Muscle, accumulated activity: 1.3 ± 0.2 % IA/g
  Salivary glands, accumulated activity: 8.7 ± 0.9 % IA/g
  Spleen, accumulated activity: 0.83 ± 0.25 % IA/g
  Stomach, accumulated activity: 1.4 ± 0.5 % IA/g
  Tumor-to-blood ratio: 12 ± 5
  Tumor-to-kidney ratio: 0.59 ± 0.04
  Tumor-to-liver ratio: 18 ± 3
24 h p.i.
  Blood, accumulated activity: 0.06 ± 0.01 % IA/g
  Bone, accumulated activity: 0.49 ± 0.09 % IA/g
  Intestines, accumulated activity: 0.28 ± 0.11 % IA/g
  KB tumor, accumulated activity: 33 ± 2 % IA/g
  Kidneys, accumulated activity: 62 ± 11 % IA/g
  Liver, accumulated activity: 1.2 ± 0.2 % IA/g
  Lung, accumulated activity: 0.60 ± 0.07 % IA/g
  Muscle, accumulated activity: 0.75 ± 0.20 % IA/g
  Salivary glands, accumulated activity: 4.5 ± 0.8 % IA/g
  Spleen, accumulated activity: 0.51 ± 0.13 % IA/g
  Stomach, accumulated activity: 0.54 ± 0.12 % IA/g
  Tumor-to-blood ratio: 583 ± 105
  Tumor-to-kidney ratio: 0.54 ± 0.07
  Tumor-to-liver ratio: 28 ± 7
